Measured values taken from patent US20070123533A1, “New process for preparing an optically pure 2-morpholinol derivative” (SMITHKLINE BEECHAM CORPORATION, priority 2003, published 2007).
In brackets after ≈: the same amount, converted by molar mass.

Columns and labels:
[1] = Racemization of the pure enantiomer in heated solvents, optical purity followed over time; type: physicochemical; settings: for Final OP (%): about 60-65° C. under reflux, starting OP >99.8%, about 20 g/L
Procedure: Pure (+)-(2S,3S)-2-(3-chlorophenyl)-3,5,5-trimethyl-2-morpholinol was tested with various solvents in order to optimize the racemization. Specifically, about 2 g of pure enantiomer ((+)(2S,3S)-2-(3-chlorophenyl)-3,5,5-trimethyl-2-morpholinol) were dissolved into 100 ml (total concentration of about 20 g/L) of solvent (see various solvents below) and heated up to about 60-65° C. under stirring (under reflux). The solution was sampled periodically in order to follow the kinetics of racemization.
Table 11 illustrates the Optical Purity of the racemization of the enantiomer in various solvents or solvent mixtures: […]

[2] = Solubility of the racemate in the chromatography eluent; type: physicochemical; settings: organic solvent or mixture
Description: The selectivity obtained has a strong influence on process productivity. As illustrated in Example 3 below the addition of isopropanol to the acetonitrile mobile phase increased the selectivity over two-fold. The process productivity is almost proportional to [formula] but other parameters also have to be considered to select the best chromatographic conditions. The process is also influenced by the retention of the compounds, with tests showing the retention to be maximal at 2-3% isopropanol. However the solubility of the racemate is shown to increase with increasing isopropanol content allowing a more concentrated feed to be injected. […] Also from the standpoint of process operation robustness, since MCC involves continuous operation it is important to avoid any precipitation effects which could halt the system. Using a mobile phase containing isopropanol reduces the likelihood of precipitation occurring and is advantageous over a MCC system operating purely in 100% acetonitrile in which racemate feed and isolated enantiomers are less soluble. […]

Structure (SMILES)	Final OP (%) ([1]; Acetonitrile/IPA (95/5), 20 hours)	Final OP (%) ([1]; Isopropanol, 20 hours)	Final OP (%) ([1]; Methanol, 2 hours)	Final OP (%) ([1]; Methanol/HCl, 2 hours)	Final OP (%) ([1]; Water/HCl, 2 hours)	racemization (in words) ([1]; acidic aqueous solvent)	racemization conversion ([1]; methanol, after 2 hours)	racemization conversion ([1]; pure isopropanol, after 20 hours)	solubility ([2]; in acetonitrile/isopropanol 95/5 mixture)	solubility ([2]; in pure acetonitrile)
C[C@@H]1NC(C)(C)CO[C@@]1(O)c1cccc(Cl)c1 [(+)-(2S,3S)-2-(3-chlorophenyl)-3,5,5-trimethyl-2-morpholinol]	92.8%	84.8%	95.3%	97.4%	>99.8%	No racemization is observed	10%	30%	–	–
C[C@H]1NC(C)(C)CO[C@]1(O)c1cccc(Cl)c1 (racemic) [racemate, (+/−)-(2R*, 3R*)-2-(3-chlorophenyl)-3,5,5-trimethyl-2-morpholinol]	–	–	–	–	–	–	–	–	30 mg/mL (≈ 117 mM)	22.5 mg/mL (≈ 88 mM)
